Measurements reported in paper PMC12002099, “Recombinant Production and Characterization of Six Ene‐reductases from Penicillium steckii” (Chembiochem, 2025).

Assays:
[1] = biological target: T1, PsOYE4 (Penicillium steckii, UniProt A0A1V6TQX2); test: steady-state kinetics, NADPH consumption, Michaelis-Menten fit; type: biochemical; details: co-substrate p-benzoquinone
T1 construct: gene PENSTE_c003G03501
Source text: steady-state kinetics, NADPH consumption, Michaelis-Menten fit on PsOYE4

[2] = biological target: T2, PsOYE3 (Penicillium steckii, UniProt A0A1V6SNM3); test: UV-Vis flavin spectrum of purified enzyme, FMN release on denaturation; type: binding; details: co-purified cofactor
T2 construct: gene PENSTE_c027G02138
T2 sequence (A0A1V6SNM3 1-421): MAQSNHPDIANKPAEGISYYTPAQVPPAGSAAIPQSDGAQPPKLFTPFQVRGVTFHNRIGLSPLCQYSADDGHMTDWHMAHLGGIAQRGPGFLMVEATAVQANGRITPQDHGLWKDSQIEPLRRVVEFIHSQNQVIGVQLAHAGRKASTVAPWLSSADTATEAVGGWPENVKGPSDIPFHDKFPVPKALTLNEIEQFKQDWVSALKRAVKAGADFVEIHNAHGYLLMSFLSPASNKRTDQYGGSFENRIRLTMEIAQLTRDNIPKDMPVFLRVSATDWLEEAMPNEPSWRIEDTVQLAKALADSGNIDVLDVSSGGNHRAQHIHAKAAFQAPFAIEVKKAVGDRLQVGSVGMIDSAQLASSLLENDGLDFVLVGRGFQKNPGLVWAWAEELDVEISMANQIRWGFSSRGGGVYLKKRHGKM

[3] = biological target: T3, PsOYE2 (Penicillium steckii, UniProt A0A1V6SMJ6); test: X-ray crystal structure, […] Å; type: binding; details: co-purified cofactor; site completed by adjacent protomer
T3 construct: gene PENSTE_c029G02105; tag-free, His-SUMO fusion cut off, expressed in E. coli; homodimer; residues 2-413 seen, C-terminus 414-422 not visible
T3 sequence (A0A1V6SMJ6 1-422): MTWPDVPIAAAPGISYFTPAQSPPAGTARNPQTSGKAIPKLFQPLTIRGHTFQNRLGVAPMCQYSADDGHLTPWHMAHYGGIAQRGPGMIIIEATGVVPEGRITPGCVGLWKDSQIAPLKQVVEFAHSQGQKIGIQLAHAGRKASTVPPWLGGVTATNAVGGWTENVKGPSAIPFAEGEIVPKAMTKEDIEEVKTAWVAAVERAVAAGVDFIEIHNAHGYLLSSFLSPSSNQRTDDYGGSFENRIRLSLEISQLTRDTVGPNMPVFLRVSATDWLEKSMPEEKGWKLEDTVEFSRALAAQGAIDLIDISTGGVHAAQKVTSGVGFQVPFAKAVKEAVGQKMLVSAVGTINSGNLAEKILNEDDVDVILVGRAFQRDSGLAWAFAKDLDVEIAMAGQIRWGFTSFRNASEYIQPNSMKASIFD

[4] = biological target: T4, PsOYE1 (Penicillium steckii, UniProt A0A1V6T993); test: UV-Vis flavin spectrum of purified enzyme, FMN release on denaturation; type: binding; details: co-purified cofactor
T4 construct: gene PENSTE_c009G01003
T4 sequence (A0A1V6T993 1-408): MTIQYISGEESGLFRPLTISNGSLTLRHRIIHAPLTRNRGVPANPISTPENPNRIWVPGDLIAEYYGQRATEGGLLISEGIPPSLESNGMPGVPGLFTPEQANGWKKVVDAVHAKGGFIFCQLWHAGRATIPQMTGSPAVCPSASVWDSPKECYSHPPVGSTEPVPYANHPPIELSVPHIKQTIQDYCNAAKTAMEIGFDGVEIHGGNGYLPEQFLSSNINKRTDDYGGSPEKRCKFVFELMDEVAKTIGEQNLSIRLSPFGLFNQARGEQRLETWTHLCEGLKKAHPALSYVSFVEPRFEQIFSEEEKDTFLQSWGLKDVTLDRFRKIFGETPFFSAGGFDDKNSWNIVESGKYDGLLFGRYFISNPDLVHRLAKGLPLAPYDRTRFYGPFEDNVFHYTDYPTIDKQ

[5] = biological target: T1, PsOYE4; test: as above; type: binding; details: co-purified cofactor
[6] = biological target: T5, PsOYE6 (Penicillium steckii, UniProt A0A1V6SJW2); test: as above; type: binding; details: co-purified cofactor
T5 construct: gene PENSTE_c042G09698
T5 sequence (A0A1V6SJW2 1-370): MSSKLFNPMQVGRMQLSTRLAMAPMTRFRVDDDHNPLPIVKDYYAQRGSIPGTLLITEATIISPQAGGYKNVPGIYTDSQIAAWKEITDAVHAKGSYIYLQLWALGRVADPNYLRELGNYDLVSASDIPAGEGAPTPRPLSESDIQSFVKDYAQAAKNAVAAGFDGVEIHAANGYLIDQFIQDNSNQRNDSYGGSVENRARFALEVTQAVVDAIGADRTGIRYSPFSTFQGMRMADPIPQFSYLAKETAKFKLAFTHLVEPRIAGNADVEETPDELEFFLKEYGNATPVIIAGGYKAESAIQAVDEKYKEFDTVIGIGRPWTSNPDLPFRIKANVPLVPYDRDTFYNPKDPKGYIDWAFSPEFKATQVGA

Km [1] [µM] | SMILES | UV-Vis flavin spectrum of purified enzyme, FMN release on denaturation [2] | X-ray crystal structure, 2.3 Å [3] | UV-Vis flavin spectrum of purified enzyme, FMN release on denaturation [4] | UV-Vis flavin spectrum of purified enzyme, FMN release on denaturation [5] | UV-Vis flavin spectrum of purified enzyme, FMN release on denaturation [6]
300 ± 100 | NC(=O)C1=CN([C@@H]2O[C@H](COP(=O)(O)OP(=O)(O)OC[C@H]3O[C@@H](n4cnc5c(N)ncnc54)[C@H](OP(=O)(O)O)[C@@H]3O)[C@@H](O)[C@H]2O)C=CC1 [NADPH] | – | – | – | – | –
– | Cc1cc2nc3c(=O)[nH]c(=O)nc-3n(C[C@H](O)[C@H](O)[C@H](O)COP(=O)(O)O)c2cc1C [FMN] | Expression and subsequent purification led to reasonably high yields of pure, soluble, and FMN‐bound proteins | The FMN cofactor, situated on the C‐terminal side of the barrel, has interactions | Expression and subsequent purification led to reasonably high yields of pure, soluble, and FMN‐bound proteins | Expression and subsequent purification led to reasonably high yields of pure, soluble, and FMN‐bound proteins | Expression and subsequent purification led to reasonably high yields of pure, soluble, and FMN‐bound proteins
